# Experimental data taken from patent publication US20160090556A1, “PRODUCTS COMPRISING MALODOR REDUCTION MATERIALS” (The Procter & Gamble Company, priority 2014, published 2016).
# Test: Liquid dish neat product liquid-air partition coefficient
# Assay type: physicochemical
# Details: not given
row,SMILES,Log of liquid dish neat product liquid-air partition coefficient (Comment Code K/L)
1,CCCCCCCCCCC=O [Material 1102],K (Log of liquid dish neat product liquid-air partition coefficient greater than or equal to −7)
2,CC(=O)OC12CCCC(C)(CCC3C1CC3(C)C)C2 (centres unmarked) [Material 573],K (Log of liquid dish neat product liquid-air partition coefficient greater than or equal to −7)
3,CCCCCCCCC=CC#N [Material 827],K (Log of liquid dish neat product liquid-air partition coefficient greater than or equal to −7)
4,CCCCCC(=O)Oc1ccc(C)cc1 [Material 939],K (Log of liquid dish neat product liquid-air partition coefficient greater than or equal to −7)
5,CC1C(=O)CC2(C)CCCC(C)(C)C23CC13 (centres unmarked) [Material 804],K (Log of liquid dish neat product liquid-air partition coefficient greater than or equal to −7)
6,CCCCCC=CC=CC(=O)OCC [Material 951],K (Log of liquid dish neat product liquid-air partition coefficient greater than or equal to −7)
7,CC1=CCC(CCC(C)C(C)O)C1(C)C (centres unmarked) [Material 1023],K (Log of liquid dish neat product liquid-air partition coefficient greater than or equal to −7)
8,CCCCCCCCCC(=O)O [Material 582],K (Log of liquid dish neat product liquid-air partition coefficient greater than or equal to −7)

# Same assay, conditions: class code letter within Comment Code
row,SMILES,Log of liquid dish neat product liquid-air partition coefficient (Comment Code K/L)
1,CC1COCc2cc3c(cc21)C(C)(C)C(C)C3(C)C (centres unmarked) [Material 335],K (Log of liquid dish neat product liquid-air partition coefficient greater than or equal to −7)
2,CC(C)C(=O)OCC=Cc1ccccc1 [Material 550],K (Log of liquid dish neat product liquid-air partition coefficient greater than or equal to −7)
3,CCCCCCCCCCCCCC(=O)OCC [Material 388],K (Log of liquid dish neat product liquid-air partition coefficient greater than or equal to −7)
4,CCC1=CCCC(C)(C)C12C=CC(C)O2 (centres unmarked) [Material 413],K (Log of liquid dish neat product liquid-air partition coefficient greater than or equal to −7)
5,C=CCCCCCCCCO [Material 470],K (Log of liquid dish neat product liquid-air partition coefficient greater than or equal to −7)
6,C=C1CCCC(C)(C)C1C(=O)C=CC (centres unmarked) [Material 331],K (Log of liquid dish neat product liquid-air partition coefficient greater than or equal to −7)

# Same assay, conditions: code letters K, L
row,SMILES,Comment Code: Log of liquid dish neat product liquid-air partition coefficient
1,CC1COCc2cc3c(cc21)C(C)(C)C(C)C3(C)C (centres unmarked) [Material 335],K (Log of liquid dish neat product liquid-air partition coefficient greater than or equal to −7)
2,CC1(C)C2=C(CO)CCC(C)(C)C23CCC1C3 (centres unmarked) [Material 248],K (Log of liquid dish neat product liquid-air partition coefficient greater than or equal to −7)
3,Cc1ccc(C(C)C)cc1O [Material 575],K (Log of liquid dish neat product liquid-air partition coefficient greater than or equal to −7)
4,CC(=O)OC12CCCC(C)(CCC3C1CC3(C)C)C2 (centres unmarked) [Material 573],K (Log of liquid dish neat product liquid-air partition coefficient greater than or equal to −7)
5,CC=CC(=O)C1C(C)=CCCC1(C)C (centres unmarked) [Material 1074],K (Log of liquid dish neat product liquid-air partition coefficient greater than or equal to −7)
6,CC1C(=O)CC2(C)CCCC(C)(C)C23CC13 (centres unmarked) [Material 804],K (Log of liquid dish neat product liquid-air partition coefficient greater than or equal to −7)
